These compounds were tested against T1, Met receptor (EGFR/Met chimeric cells, EMR) (Homo sapiens, UniProt P08581) (assay: Met Autophosphorylation Assay). Details: protocol P.130.
T1 construct: expressed in transfected cells; the other entry of the earlier key: EGFR (P00533, Epidermal growth factor receptor)
Assay type: biochemical
How it was run: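 Transiently transfected EGFR/Met chimeric (EMR) cells were lysed in HNTG with 1 mM PMSF. Met was captured on plates coated with goat anti-rabbit IgG, then rabbit anti-Met (C-28), using 90 μg lysate/100 μl for 60 min at room temperature. Phosphotyrosine was read by ELISA.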

T1 sequence (P08581 with tags, fused parts or gaps): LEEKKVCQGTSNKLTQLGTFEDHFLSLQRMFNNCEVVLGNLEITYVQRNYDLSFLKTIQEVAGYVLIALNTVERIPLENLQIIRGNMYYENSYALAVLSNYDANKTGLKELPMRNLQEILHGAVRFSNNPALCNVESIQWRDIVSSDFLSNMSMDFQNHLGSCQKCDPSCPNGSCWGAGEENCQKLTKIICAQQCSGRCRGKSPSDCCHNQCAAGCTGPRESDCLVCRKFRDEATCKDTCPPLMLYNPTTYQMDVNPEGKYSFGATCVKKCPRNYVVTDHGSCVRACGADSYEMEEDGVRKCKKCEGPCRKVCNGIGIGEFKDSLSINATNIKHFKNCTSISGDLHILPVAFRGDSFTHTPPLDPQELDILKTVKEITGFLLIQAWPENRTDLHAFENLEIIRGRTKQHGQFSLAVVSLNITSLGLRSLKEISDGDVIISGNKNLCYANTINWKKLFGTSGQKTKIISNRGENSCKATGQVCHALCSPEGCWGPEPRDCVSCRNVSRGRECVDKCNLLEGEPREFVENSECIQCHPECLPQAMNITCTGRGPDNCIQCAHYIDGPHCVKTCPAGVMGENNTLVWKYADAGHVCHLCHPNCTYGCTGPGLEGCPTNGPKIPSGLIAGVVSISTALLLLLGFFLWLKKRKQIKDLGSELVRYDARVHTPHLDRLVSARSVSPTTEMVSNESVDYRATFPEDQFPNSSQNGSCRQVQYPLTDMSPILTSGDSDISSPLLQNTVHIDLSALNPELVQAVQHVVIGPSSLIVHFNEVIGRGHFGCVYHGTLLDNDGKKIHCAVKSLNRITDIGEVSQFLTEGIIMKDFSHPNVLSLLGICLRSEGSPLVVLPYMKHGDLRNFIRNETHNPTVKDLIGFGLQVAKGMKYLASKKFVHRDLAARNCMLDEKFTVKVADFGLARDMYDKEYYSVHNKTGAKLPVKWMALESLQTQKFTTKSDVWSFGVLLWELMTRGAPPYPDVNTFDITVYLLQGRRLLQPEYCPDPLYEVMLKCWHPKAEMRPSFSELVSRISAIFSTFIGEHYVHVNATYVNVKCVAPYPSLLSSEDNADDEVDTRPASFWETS

SMILES | Met Kinase % Inhibition (P.130) [%]
Cc1ccc(C)c(C=C2C(=O)Nc3c(Br)cc(Br)c(C)c32)c1 [10737/H07] | 51.8
Cc1c(Br)cc(Br)c2c1C(=Cc1ccc3ccccc3c1)C(=O)N2 [10737/H08] | 28.0
Cc1c(Br)cc(Br)c2c1C(=Cc1ccc(Oc3ccccc3)cc1)C(=O)N2 [10737/H09] | 38.1
Cc1c(Br)cc(Br)c2c1C(=Cc1cccc(Oc3ccc(C(C)(C)C)cc3)c1)C(=O)N2 [10737/H10] | 51.6
Cc1c(Br)cc(Br)c2c1C(=Cc1cccc(Oc3cccc(C(F)(F)F)c3)c1)C(=O)N2 [10737/H11] | 31.7
Cc1ccc(Oc2cccc(C=C3C(=O)Nc4c(Br)cc(Br)cc43)c2)cc1 [10738/A02] | 10.0
O=C1Nc2c(Br)cc(Br)cc2C1=Cc1cccc(Oc2ccc(Cl)c(Cl)c2)c1 [10738/A03] | 20.7
COc1ccc(C=C2C(=O)Nc3c(Br)cc(Br)cc32)cc1O [10738/A04] | 55.9
O=C1Nc2c(Br)cc(Br)cc2C1=Cc1cc(O)ccc1[N+](=O)[O-] [10738/A05] | 33.1
O=C1Nc2c(Br)cc(Br)cc2C1=Cc1cccc(O)c1O [10738/A06] | 95.8
O=C1Nc2c(Br)cc(Br)cc2C1=Cc1cc(O)cc(O)c1 [10738/A07] | 72.7
O=C1Nc2c(Br)cc(Br)cc2C1=Cc1ccc(Cl)c(Cl)c1 [10738/A08] | 12.2
COc1ccccc1C=C1C(=O)Nc2c(Br)cc(Br)cc21 [10738/A09] | 20.2
CC(C)c1ccc(C=C2C(=O)Nc3c(Br)cc(Br)cc32)cc1 [10738/A10] | 35.7
CCCOc1ccc(C=C2C(=O)Nc3c(Br)cc(Br)cc32)cc1 [10738/A11] | 41.7
Cc1ccc(Oc2cccc(C=C3C(=O)Nc4ccc(I)cc43)c2)cc1 [10738/B02] | 78.7
O=C1Nc2ccc(I)cc2C1=Cc1cccc(Oc2ccc(Cl)c(Cl)c2)c1 [10738/B03] | 74.0
COc1ccc(C=C2C(=O)Nc3ccc(I)cc32)cc1O [10738/B04] | 70.7
O=C1Nc2ccc(I)cc2C1=Cc1cc(O)ccc1[N+](=O)[O-] [10738/B05] | 67.6
O=C1Nc2ccc(I)cc2C1=Cc1cccc(O)c1O [10738/B06] | 83.6
O=C1Nc2ccc(I)cc2C1=Cc1cc(O)cc(O)c1 [10738/B07] | 66.7
O=C1Nc2ccc(I)cc2C1=Cc1ccc(Cl)c(Cl)c1 [10738/B08] | 70.9
COc1ccccc1C=C1C(=O)Nc2ccc(I)cc21 [10738/B09] | 79.4
CC(C)c1ccc(C=C2C(=O)Nc3ccc(I)cc32)cc1 [10738/B10] | 70.7
CCCOc1ccc(C=C2C(=O)Nc3ccc(I)cc32)cc1 [10738/B11] | 75.4
Cc1ccc(Oc2cccc(C=C3C(=O)Nc4ccc(Br)c(C)c43)c2)cc1 [10738/C02] | 4.3

SMILES | Met Kinase % Inhibition (P.130) [%]
Cc1c(Br)ccc2c1C(=Cc1cccc(Oc3ccc(Cl)c(Cl)c3)c1)C(=O)N2 [10738/C03] | 22.7
COc1ccc(C=C2C(=O)Nc3ccc(Br)c(C)c32)cc1O [10738/C04] | 53.7
Cc1c(Br)ccc2c1C(=Cc1cc(O)ccc1[N+](=O)[O-])C(=O)N2 [10738/C05] | 34.2
Cc1c(Br)ccc2c1C(=Cc1cccc(O)c1O)C(=O)N2 [10738/C06] | 92.2
Cc1c(Br)ccc2c1C(=Cc1cc(O)cc(O)c1)C(=O)N2 [10738/C07] | 51.2
Cc1c(Br)ccc2c1C(=Cc1ccc(Cl)c(Cl)c1)C(=O)N2 [10738/C08] | 39.5
COc1ccccc1C=C1C(=O)Nc2ccc(Br)c(C)c21 [10738/C09] | 8.9
Cc1c(Br)ccc2c1C(=Cc1ccc(C(C)C)cc1)C(=O)N2 [10738/C10] | 3.2
CCCOc1ccc(C=C2C(=O)Nc3ccc(Br)c(C)c32)cc1 [10738/C11] | 12.0
CNS(=O)(=O)c1ccc2c(c1)C(=Cc1cccc(Oc3ccc(C)cc3)c1)C(=O)N2 [10738/D02] | 15.6
CNS(=O)(=O)c1ccc2c(c1)C(=Cc1cccc(Oc3ccc(Cl)c(Cl)c3)c1)C(=O)N2 [10738/D03] | 16.0
CNS(=O)(=O)c1ccc2c(c1)C(=Cc1ccc(OC)c(O)c1)C(=O)N2 [10738/D04] | 32.2
CNS(=O)(=O)c1ccc2c(c1)C(=Cc1cc(O)ccc1[N+](=O)[O-])C(=O)N2 [10738/D05] | 42.4
CNS(=O)(=O)c1ccc2c(c1)C(=Cc1cccc(O)c1O)C(=O)N2 [10738/D06] | 96.0
CNS(=O)(=O)c1ccc2c(c1)C(=Cc1cc(O)cc(O)c1)C(=O)N2 [10738/D07] | 68.3
CNS(=O)(=O)c1ccc2c(c1)C(=Cc1ccc(Cl)c(Cl)c1)C(=O)N2 [10738/D08] | 37.7
CNS(=O)(=O)c1ccc2c(c1)C(=Cc1ccccc1OC)C(=O)N2 [10738/D09] | 22.7
CNS(=O)(=O)c1ccc2c(c1)C(=Cc1ccc(C(C)C)cc1)C(=O)N2 [10738/D10] | 25.3
CCCOc1ccc(C=C2C(=O)Nc3ccc(S(=O)(=O)NC)cc32)cc1 [10738/D11] | 4.3
Cc1ccc(Oc2cccc(C=C3C(=O)Nc4ccc(S(=O)(=O)Nc5ccc(C(F)(F)F)cc5)cc43)c2)cc1 [10738/E02] | 3.8
O=C1Nc2ccc(S(=O)(=O)Nc3ccc(C(F)(F)F)cc3)cc2C1=Cc1cccc(Oc2ccc(Cl)c(Cl)c2)c1 [10738/E03] | 21.1
COc1ccc(C=C2C(=O)Nc3ccc(S(=O)(=O)Nc4ccc(C(F)(F)F)cc4)cc32)cc1O [10738/E04] | 64.1
O=C1Nc2ccc(S(=O)(=O)Nc3ccc(C(F)(F)F)cc3)cc2C1=Cc1cc(O)ccc1[N+](=O)[O-] [10738/E05] | 61.0
O=C1Nc2ccc(S(=O)(=O)Nc3ccc(C(F)(F)F)cc3)cc2C1=Cc1cccc(O)c1O [10738/E06] | 92.4
O=C1Nc2ccc(S(=O)(=O)Nc3ccc(C(F)(F)F)cc3)cc2C1=Cc1cc(O)cc(O)c1 [10738/E07] | 89.3
O=C1Nc2ccc(S(=O)(=O)Nc3ccc(C(F)(F)F)cc3)cc2C1=Cc1ccc(Cl)c(Cl)c1 [10738/E08] | 52.6

SMILES | Met Kinase % Inhibition (P.130) [%]
COc1ccccc1C=C1C(=O)Nc2ccc(S(=O)(=O)Nc3ccc(C(F)(F)F)cc3)cc21 [10738/E09] | 18.0
CC(C)c1ccc(C=C2C(=O)Nc3ccc(S(=O)(=O)Nc4ccc(C(F)(F)F)cc4)cc32)cc1 [10738/E10] | 5.8
CCCOc1ccc(C=C2C(=O)Nc3ccc(S(=O)(=O)Nc4ccc(C(F)(F)F)cc4)cc32)cc1 [10738/E11] | 11.8
Cc1ccc(Oc2cccc(C=C3C(=O)Nc4ccc(S(=O)(=O)N5CCOCC5)cc43)c2)cc1 [10738/F02] | 66.1
O=C1Nc2ccc(S(=O)(=O)N3CCOCC3)cc2C1=Cc1cccc(Oc2ccc(Cl)c(Cl)c2)c1 [10738/F03] | 20.0
COc1ccc(C=C2C(=O)Nc3ccc(S(=O)(=O)N4CCOCC4)cc32)cc1O [10738/F04] | 61.4
O=C1Nc2ccc(S(=O)(=O)N3CCOCC3)cc2C1=Cc1cc(O)ccc1[N+](=O)[O-] [10738/F05] | 33.5
O=C1Nc2ccc(S(=O)(=O)N3CCOCC3)cc2C1=Cc1cccc(O)c1O [10738/F06] | 86.7
O=C1Nc2ccc(S(=O)(=O)N3CCOCC3)cc2C1=Cc1cc(O)cc(O)c1 [10738/F07] | 52.3
O=C1Nc2ccc(S(=O)(=O)N3CCOCC3)cc2C1=Cc1ccc(Cl)c(Cl)c1 [10738/F08] | 60.5
COc1ccccc1C=C1C(=O)Nc2ccc(S(=O)(=O)N3CCOCC3)cc21 [10738/F09] | 28.9
CC(C)c1ccc(C=C2C(=O)Nc3ccc(S(=O)(=O)N4CCOCC4)cc32)cc1 [10738/F10] | 47.9
CCCOc1ccc(C=C2C(=O)Nc3ccc(S(=O)(=O)N4CCOCC4)cc32)cc1 [10738/F11] | 52.6
Cc1ccc(Oc2cccc(C=C3C(=O)Nc4ccc(CCCl)cc43)c2)cc1 [10738/G02] | 16.9
O=C1Nc2ccc(CCCl)cc2C1=Cc1cccc(Oc2ccc(Cl)c(Cl)c2)c1 [10738/G03] | 32.8
COc1ccc(C=C2C(=O)Nc3ccc(CCCl)cc32)cc1O [10738/G04] | 42.6
O=C1Nc2ccc(CCCl)cc2C1=Cc1cc(O)ccc1[N+](=O)[O-] [10738/G05] | 27.3
O=C1Nc2ccc(CCCl)cc2C1=Cc1cccc(O)c1O [10738/G06] | 86.5
O=C1Nc2ccc(CCCl)cc2C1=Cc1cc(O)cc(O)c1 [10738/G07] | 40.4
O=C1Nc2ccc(CCCl)cc2C1=Cc1ccc(Cl)c(Cl)c1 [10738/G08] | 36.8
COc1ccccc1C=C1C(=O)Nc2ccc(CCCl)cc21 [10738/G09] | 16.9
CC(C)c1ccc(C=C2C(=O)Nc3ccc(CCCl)cc32)cc1 [10738/G10] | 12.5
CCCOc1ccc(C=C2C(=O)Nc3ccc(CCCl)cc32)cc1 [10738/G11] | 22.2
Cc1ccc(Oc2cccc(C=C3C(=O)Nc4c(Br)cc(Br)c(C)c43)c2)cc1 [10738/H02] | 35.3
